Measurements: ChEMBL document CHEMBL4665871, “Small-molecule active pharmaceutical ingredients of approved cancer therapeutics inhibit human aspartate/asparagine-β-hydroxylase” (Bioorg Med Chem, 2020)
pIC50: −log10 of the molar value.

Tests used:
[1] = biological target: T1, Aspartyl/asparaginyl beta-hydroxylase (Homo sapiens, UniProt Q12797); test: Inhibition of N-His6-tagged human AspH (315-755) expressed in Escherichia coli BL21 (DE3) using 1 uM hFX-CP as substrate mixture with high 200 uM 2OG, 100 uM L-ascorbic acid and 2 uM FAS incubated for 35 mins by MS analysis
T1 sequence (Q12797 whole entry): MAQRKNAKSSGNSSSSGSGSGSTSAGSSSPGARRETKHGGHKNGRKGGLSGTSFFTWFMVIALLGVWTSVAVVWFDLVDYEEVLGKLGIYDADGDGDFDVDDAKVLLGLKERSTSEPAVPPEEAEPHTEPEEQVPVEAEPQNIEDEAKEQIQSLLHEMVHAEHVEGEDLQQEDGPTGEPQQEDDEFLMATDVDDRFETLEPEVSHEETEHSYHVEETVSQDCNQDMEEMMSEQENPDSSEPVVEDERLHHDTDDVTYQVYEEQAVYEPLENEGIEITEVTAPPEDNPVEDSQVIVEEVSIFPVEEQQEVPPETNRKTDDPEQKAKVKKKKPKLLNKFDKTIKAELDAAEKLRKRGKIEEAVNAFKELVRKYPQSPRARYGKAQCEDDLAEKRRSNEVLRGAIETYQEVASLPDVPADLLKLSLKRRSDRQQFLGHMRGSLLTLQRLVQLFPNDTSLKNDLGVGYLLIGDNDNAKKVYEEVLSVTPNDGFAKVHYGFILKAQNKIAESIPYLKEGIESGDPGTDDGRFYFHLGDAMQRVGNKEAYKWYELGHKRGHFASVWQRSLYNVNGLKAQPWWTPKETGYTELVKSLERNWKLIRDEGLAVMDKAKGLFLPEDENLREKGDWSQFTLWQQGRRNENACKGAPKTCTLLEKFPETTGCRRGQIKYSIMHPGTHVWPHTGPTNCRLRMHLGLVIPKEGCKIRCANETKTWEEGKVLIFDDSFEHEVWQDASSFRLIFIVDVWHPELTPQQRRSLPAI

[2] = biological target: T1, Aspartyl/asparaginyl beta-hydroxylase; test: Inhibition of N-His6-tagged human AspH (315-755) expressed in Escherichia coli BL21 (DE3) using 1 uM hFX-CP as substrate mixture with 3 uM 2OG, 100 uM L-ascorbic acid and high 20 uM FAS incubated for 35 mins by MS analysis
[3] = biological target: T1, Aspartyl/asparaginyl beta-hydroxylase; test: Inhibition of N-His6-tagged human AspH (315-755) expressed in Escherichia coli BL21 (DE3) using high 10 uM hFX-CP as substrate mixture with 10 uM 2OG, 100 uM L-ascorbic acid and 2 uM FAS incubated for 35 mins by MS analysis

pIC50 [1]: 4.91
IC50 [2]: Not Active
pIC50 [3]: 5.47
SMILES: CO[C@H](C(=O)[C@@H](O)[C@@H](C)O)[C@@H]1Cc2cc3cc(O[C@H]4C[C@@H](O[C@H]5C[C@@H](O)[C@H](O)[C@@H](C)O5)[C@H](O)[C@@H](C)O4)c(C)c(O)c3c(O)c2C(=O)[C@H]1O[C@H]1C[C@@H](O[C@H]2C[C@@H](O[C@H]3C[C@](C)(O)[C@H](O)[C@@H](C)O3)[C@@H](O)[C@@H](C)O2)[C@H](O)[C@@H](C)O1
